Patent US4786755A, “Diphenic acid monoamides” (Warner-Lambert Company, priority 1986, dated 1988)
pIC50: −log10 of the molar value.

What follows are compounds tested against T1, leukotriene receptor (Cavia porcellus, UniProt Q2NNR5) (assay: Binding of ^3 H-Leukotriene D4 to Guinea Pig Lung Membranes (RBL)). Conditions: ^3 H-LTD4, guinea pig lung membranes; read-out: IC50 RBL1.
T1 construct: 20 mg original tissue wet weight of guinea pig lung membranes; tissue Kuiper Rabbit Farm, Gary, IN (animals); host or cells: guinea pig lung, crude membranes
T1 sequence (Q2NNR5 1-340): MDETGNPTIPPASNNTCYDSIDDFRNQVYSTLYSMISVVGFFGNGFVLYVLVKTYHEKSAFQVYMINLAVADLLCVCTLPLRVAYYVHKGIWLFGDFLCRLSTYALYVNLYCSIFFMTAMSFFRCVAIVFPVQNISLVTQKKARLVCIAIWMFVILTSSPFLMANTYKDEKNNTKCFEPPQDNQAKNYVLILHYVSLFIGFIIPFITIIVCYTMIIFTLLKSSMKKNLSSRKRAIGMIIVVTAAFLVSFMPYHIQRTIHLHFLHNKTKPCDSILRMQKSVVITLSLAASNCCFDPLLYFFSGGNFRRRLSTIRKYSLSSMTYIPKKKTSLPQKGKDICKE
Protocol: Additionally, the activity, of the compounds having the Formula I of the present invention is determined by the well known leukotriene receptor binding assay that is described by R. F. Bruns, W. J. Thomsen and T. A. Pugsley in Life Sciences, 33, 645 (1983) or the Herxheimer in vivo antiallergy test described in H. Herxheimer, J. Physiol. (London), Vol. 177, p. 251 (1952).
Binding of ^3 H-Leukotriene D4 to Guinea Pig Lung Membranes (RBL)
[14,15-^3 H]leukotriene D4 (^3 H-LTD4) (25 Ci/mmol and 40 Ci/mmol) is purchased from New England Nuclear. Unlabeled LTC4 is a gift of Ono Pharmaceuticals (Japan). LTC4, LTD4, and LTE4 are purchased as methyl esters from Paesel GmbH (Frankfurt, W. Germany). Concentrations of the Paesel leukotrienes are calculated from their absorbance at 280 nm. Leukotriene esters are saponified overnight under N2 in 3.3% potassium carbonate at room temperature. Tritiated leukotrienes are stored as received from New England Nuclear at -20° C. Ono LTC4 (5 μg/ml is stored at -60° C. in phosphate buffer pH 6.8. Saponified Paesel leukotrienes are stored at -60° C. in 3.3% potassium carbonate (pH 9.0-9.5). Aliquots of leukotrienes are taken from stock solutions immediately after thawing, after which the stock solutions are immediately refrozen. 2-Amino-2-(hydroxymethyl)-1,3-propanediol (Tris) is Sigma pH 7.7 pre-set crystals, and dimethylsulfoxide is Aldrich Gold Label.
Preparation of crude lung membranes
Two pairs of lungs (1.3 g) from freshly sacrificed 300 g male guinea pigs (older animals gave substantially lower binding) from Kuiper Rabbit Farm, Gary, IN are disrupted with a Polytron PT 10 (setting 4) for 30 seconds in 20 ml ice-cold 50 mM Tris adjusted with HCl to pH 7.7 at 25° C. (Tris buffer), filtered through a single layer of gauze to remove connective tissue, and centrifuged at 50,000 xg for ten min. The pellet is resuspended by homogenization with a Polytron in 20 ml Tris buffer, centrifuged at 50,000 xg for ten min., resuspended, incubated at 37° C. for 30 minutes, and centrifuged again. The final pellet is resuspended in Tris buffer and either used fresh or stored at -70° C.
All incubations are in triplicate for 60 minutes at 25° C. in 12×75 mm polystyrene tubes containing 1 ml Tris buffer with 20 mg original tissue wet weight of guinea pig lung membranes, 0.2 nM ^3 H-LTD4 (6,000-11,000 cpm), 10 mM MgCl2, and 1% dimethylsulfoxide. Leukotrienes are diluted in Tris buffer. All other test compounds are dissolved at 10 mM in dimethylsulfoxide on the same day as the experiment, and diluted in dimethylsulfoxide to 100× the final incubation concentration. Control incubations receive an equal volume (10 μl) of dimethylsulfoxide; the resulting concentration of dimethylsulfoxide had no effect on binding. ^3 H-LTD4 is diluted to 2 nM in Tris buffer. The membrane suspension (20 mg/0.89 ml) contains sufficient MgCl2 to give 10 mM final concentration in the incubation. […] All additions are performed at 0° C. Immediately after the last addition, the incubation is initiated by agitating the rack of tubes on a vortex mixer and warming to 25° C. in a water bath. Tubes are vortexed at least once more during the incubation to ensure that the membranes remained suspended. Incubations are terminated after 60 minutes by filtering under reduced pressure through 25 mm Whatman GF/B filters followed by rapid washing three times with 4 ml of ice-cold Tris buffer. Filters are added to scintillation vials with 8 ml Formula 947 (New England Nuclear), left overnight, shaken, and the radioactivity counted in a scintillation counter (efficiency 40%). Nonspecific binding, defined as binding of ^3 H-LTD4 in the presence of 100 nM LTC4, is 300-500 cpm for all lots of ^3 H-LTD4. Binding to the filters in the absence of tissue is about 100 cpm, and is not affected by unlabeled LTC4. Specific binding, defined as total binding minus nonspecific binding, varied considerably from lot to lot of ^3 H-LTD4. […]

| Compound | pIC50 |
| --- | --- |
| O=C(O)c1ccccc1-c1ccccc1C(=O)Nc1ccc(CCc2ccc(Oc3ccccc3)cc2)cc1 [Example 52] | 4.88 |
| O=C(O)c1ccccc1-c1ccccc1C(=O)Nc1ccc(CCc2cc(C(F)(F)F)cc(C(F)(F)F)c2)cc1 [Example 13, [1,1'-Biphenyl]-2-carboxylic acid, 2'-[[[4-[2-[3,5-bis(trifluoromethyl)phenyl]ethyl]phenyl]amino]carbonyl]-] | 5.27 |
| CN(C)c1ccc(CCC(=O)c2ccc(NC(=O)c3ccccc3-c3ccccc3C(=O)O)cc2)cc1 [Example 48, [1,1'-Biphenyl]-2-carboxylic acid, 2'-[[[4-[1-oxo-3-(4-dimethylaminophenyl)propyl]phenyl]amino]carbonyl]-] | 4.27 |
| O=C(CCc1ccc(NC(=O)c2ccccc2-c2ccccc2C(=O)O)cc1)c1ccc(Oc2ccccc2)cc1 [Example 54, [1,1'-Biphenyl]-2-carboxylic acid, 2'-[[[4-[3-oxo-3-(4-phenoxyphenyl)propyl]phenyl]amino]carbonyl]-] | 4.77 |
| O=C(CCc1ccc(Br)cc1)c1ccc(NC(=O)c2ccccc2-c2ccccc2C(=O)O)cc1 [Example 51, [1,1'-Biphenyl]-2-carboxylic acid, 2'-[[[4-[1-oxo-3-(4-bromophenyl)propyl]phenyl]amino]-carbonyl]-] | 5.14 |
| CCCCCCCCCCc1ccc(NC(=O)c2ccccc2-c2ccccc2C(=O)O)cc1 [Example 20] | 4.95 |
| O=C(CCc1ccc(Cl)cc1)c1ccc(NC(=O)c2ccccc2-c2ccccc2C(=O)O)cc1 [Example 49, [1,1'-Biphenyl]-2-carboxylic acid, 2'-[[[4-[1-oxo-3-(4-chlorophenyl)propyl]phenyl]amino]carbonyl]-] | 5.12 |
| O=C(C=Cc1ccc(Br)cc1)c1ccc(NC(=O)c2ccccc2-c2ccccc2C(=O)O)cc1 [Example 47, [1,1'-Biphenyl]-2-carboxylic acid, 2'-[[[4-[1-oxo-3-(4-bromophenyl)-2-propenyl]phenyl]amino]carbonyl]-] | 4.57 |
| CC(CC(=O)CCc1ccc(NC(=O)c2ccccc2-c2ccccc2C(=O)O)cc1)c1ccccc1 (centres unmarked) [Example 57, [1,1'-Biphenyl]-2-carboxylic acid, 2'-[[[4-[5-phenyl-3-oxohexyl]phenyl]amino]carbonyl]-] | 4.35 |

Next, values leading:

| pIC50 | Compound |
| --- | --- |
| 4.88 | O=C(O)c1ccccc1-c1ccccc1C(=O)Nc1ccc(CCCc2ccc(Oc3ccccc3)cc2)cc1 [Example 55, [1,1'-Biphenyl]-2-carboxylic acid, 2'-[[[4-[3-(4-phenoxyphenyl)propyl]phenyl]amino]carbonyl]-] |
| 6.15 | O=C(O)c1ccccc1-c1ccccc1C(=O)Nc1cccc(CCCCc2ccc(Cl)c(Cl)c2)c1 [Example 50, [1,1'-Biphenyl]-2-carboxylic acid, 2'-[[[3-[4-(3,4-dichlorophenyl)butyl]phenyl]amino]carbonyl]-] |
| 5.42 | O=C(CCCCc1ccc(Cl)c(Cl)c1)c1ccc(NC(=O)c2ccccc2-c2ccccc2C(=O)O)cc1 [Example 56, [1,1'-Biphenyl]-2-carboxylic acid, 2'-[[[4-[5-(3,4-dichlorophenyl)-1-oxopentyl]phenyl]amino]-carbonyl]-] |
| 5.62 | O=C(O)c1ccccc1-c1ccccc1C(=O)Nc1cccc(CCc2ccc(Oc3ccccc3)cc2)c1 [Example 53] |
| 6.00 | O=C(O)c1ccccc1-c1ccccc1C(=O)Nc1cccc(CCCc2ccc(Cl)c(Cl)c2)c1 [Example 6, [1,1'-Biphenyl]-2-carboxylic acid, 2'-[[[3-[3-(3,4-dichlorophenyl)propyl]phenyl]amino]carbonyl]] |
| 5.24 | O=C(C=Cc1ccc(Cl)c(Cl)c1)c1ccc(NC(=O)c2ccccc2-c2ccccc2C(=O)O)cc1 [Example 46, [1,1'-Biphenyl]-2-carboxylic acid, 2'-[[[4-[1-oxo-3-(3,4-dichlorophenyl)-2-propenyl]phenyl]amino]-carbonyl]-] |
| 5.92 | O=C(O)c1ccccc1-c1ccccc1C(=O)Nc1ccc(OCCCCc2ccccc2)cc1 [Example 44, [1,1'-Biphenyl]-2-carboxylic acid, 2'-[[[4-(4-phenylbutyloxy)phenyl]amino]carbonyl]-] |
| 5.14 | O=C(O)c1ccccc1-c1ccccc1C(=O)Nc1ccc(CCCCCc2ccc(Cl)c(Cl)c2)cc1 [Example 58, [1,1'-Biphenyl]-2-carboxylic acid, 2'-[[[4-[5-(3,4-dichlorophenyl]pentyl]phenyl]amino]carbonyl]-] |
